Patent publication US10220040B2, “Compounds, compositions and methods useful for cholesterol mobilization” (Cerenis Therapeutics Holding SA, priority 2010, dated 2019)

Assays:
human P2Y13 receptor = human P2Y13 receptor (Homo sapiens (Human), UniProt Q9BPV8); assay: Ca++ flux agonist assay on P2Y13 receptor transfected 1321N1 cells; type: cell-based; conditions: Table 4, measured from data of Figure 2; comma is decimal sign
Method: Compounds were assayed for their agonist activity on P2Y13 GPCR transfected cells using a Ca++ flux assay (associated to fluorescent dye detection) with the Reference Compound as positive reference. Two cell lines, 1321N1-P2Y13 stably expressing human P2Y13 receptor, and 1321N1 parental cell line as control, were used in this assay. 1321N1 Parental and 1321N1 P2Y13 were seeded into T25 flasks at 3 million cells per flask, respectively. Cells were incubated at 37 degrees Celsius in 5% CO2 overnight. The day after, cells were transfected with Gqi5 protein using Fugene transfection reagent (Roche's Fugene Reagent).
After 24 hours of transfection, cells were collected from flasks and seeded in 384-well plates at 8000 cells per well. The assays were carried out 48 hours after Gqi5 transfection.
Methods: The Ca++ flux assay was conducted according to the manufacturer's protocol (Molecular Devices FLIPR Calcium 4 Assay kit (R8142). Briefly, cell culture media were aspirated from the wells and replaced with 25 μL of Hank's buffer or PBS buffer. 25 μL of Ca++ dye was added into each assay well. The plate was incubated for 1 hour at 37° C. in 5% CO2. After the incubation, the plate was transferred to FlexStation III (FlexStation III (Molecular Devices)). The compounds were automatically injected into each well.

HepG2 cells = assay: In vitro HDL internalization in human hepatocytes (HepG2) cells; type: cell-based; conditions: compound 1 μM; 3H-labeled HDL 75 μg/ml, 10 min at 37° C.
Method: FIG. 3: Single-dose effect of the selected molecules on HDL internalization by HepG2 cells. Cells were incubated for 10 min at 37° C. with 75 μg/ml ^3H cholesterol Cholesteryl Oleate [Cholesteryl-1,2-^3H(N)] HDL, Reference Compound (100 nM) and illustrative compounds of the invention (1 μM). Data are expressed as the percentage of internalized radioactivity with respect to the control value (set as […]). *p<0.005, **p<0.0001.
The effect of illustrative compounds of the invention on HDL internalization was measured by an in vitro assay on HepG2 cells (FIG. 3). ^3H cholesterol Cholesteryl Oleate [Cholesteryl-1,2-^3H(N)] labeled HDL] (available from PerkinElmer http://www.perkinelmer.com/Catalog/Product/ID/NET746L001MC) was loaded on HepG2 cells in presence of illustrative compounds of the invention (final concentration 1 μM). […] It was determined that Compounds XIa, IIc, IIa and Ih (R-isomer) have a strong impact on HDL uptake by HepG2 cells; Compounds IIb, VIIa and VIIIa have a modest impact on HDL uptake by HepG2 cells.
^3H cholesterol Cholesteryl Oleate [Cholesteryl-1,2-^3H(N)] (Perkin Elmer) solution (250 μL) was dried and resuspended in acetone (250 μL). The solution was mixed with Lipoprotein delipidated serum (20 mL at 40 mg/mL) and DTNB (0.4 μM final concentration). HDL (7 mg) was added and incubated overnight at 4° C. on gentle rotation. The HDL was purified on KBr gradient as previously described.
Hepatocytes were plated at 300,000 cells/well in 6×-well plates. Two days later, the cells were washed once with DMEM and incubated for 1 hour in DMEM at 37° C. 75 μg of radio-labeled HDL (6500 dpm/μg) were added to the medium and incubated for 10 minutes at 37° C. The cells were washed once with DMEM (2 mL) and incubated for 1.5 hours in DMEM at 4° C., whereupon dissociation occurred. Then the cells were washed once more with cold DMEM (2 mL) and the incorporated cholesterol ether was retrieved from HepG2 cells by the addition of hexane:isopropanol (3:2) solution (1 mL).

[1] = tested on: P2Y13 knock-down Hepa 1-6 cells; assay: HDL uptake on P2Y13 knock-down Hepa 1-6 cells; type: cell-based, mouse; conditions: in presence of Compound IIa (1 μM); doxycycline 72 hours; p<0.005
Method: FIG. 15: HDL uptake on P2Y13 knock-down Hepa 1-6 cells. Hepa 1-6 cells transduced with lentiviral particles coding the P2Y13 shRNA were induced by the addition of doxycycline for 72 hours. Cells were incubated for 10 min at 37° C. with 75 μg/ml ^3H cholesterol ether HDL and Compound IIa (1 μM). Data are expressed as the percentage of internalized radioactivity with respect to the control value (set as […]).*p<0.05, **p<0.005.
In order to relate the specific P2Y13 HDL uptake to the illustrative compounds of the invention, a knock-down P2Y13 in a mouse liver cell line (Hepa 1-6) was investigated. Lentiviral particles coding for the mouse P2Y13 shRNA and inducible by the addition of doxycycline onto the cells (pTRIPZ vector from Open Biosystem) were used. In presence of doxycycline, a decrease of the P2Y13 mRNA (FIG. 11) was observed. The uptake of HDL on this cell line was measured in the presence and the absence of Compound IIa and doxycycline (FIG. 12). A significant decrease of HDL uptake (8.5%) was observed when the cells were treated with doxycycline (group vehicle—p<0.05).
Transduced Hepa 1-6 cells were plated at 300,000 cells/well in 6×-well plates. […]
The lentiviral production in HEK 293T and authorization for lentiviral production was obtained by Vectalys. […] 24 hours after transduction, the number of cells was counted. […]

Chain of human P2Y13 receptor (Q9BPV8 whole entry): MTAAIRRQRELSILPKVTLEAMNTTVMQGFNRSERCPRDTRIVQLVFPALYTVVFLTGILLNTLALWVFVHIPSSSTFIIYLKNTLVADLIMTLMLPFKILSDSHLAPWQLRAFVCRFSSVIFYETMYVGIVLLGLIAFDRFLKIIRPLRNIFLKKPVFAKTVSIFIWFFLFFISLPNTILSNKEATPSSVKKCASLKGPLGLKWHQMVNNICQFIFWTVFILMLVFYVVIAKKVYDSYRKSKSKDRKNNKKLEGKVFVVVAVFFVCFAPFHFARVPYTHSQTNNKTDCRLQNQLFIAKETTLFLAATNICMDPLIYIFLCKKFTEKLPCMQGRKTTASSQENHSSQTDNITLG

CN(C)c1ncc(CN2CCC(c3cc(O)nc(N4CCOCC4)n3)CC2)cn1 [Compound IIa, 6-[1-(2-Dimethylaminopyrimidin-5-ylmethyl)-piperidin-4-yl]-2-morpholin-4-yl-pyrimidin-4-ol]
EC50 (human P2Y13 receptor): 40.3 µM
impact on HDL uptake by HepG2 cells (HepG2 cells): strong impact
decrease of HDL uptake when cells were treated with doxycycline (P2Y13 knock-down) [1]: 17.5%
